Experimental data from ChEMBL document CHEMBL5365497, “Developing Novel Coumarin-Containing Azoles Antifungal Agents by the Scaffold Merging Strategy for Treating Azole-Resistant Candidiasis” (J Med Chem, 2023).
In brackets after ≈: the same amount, converted by molar mass. Activity calls are given as the source filed them. The calls are words filed in the database; no cut-off is given here.

Legend:
Candida albicans [1] = assay: Antifungal activity against Candida albicans CPCC400616 assessed as fungal growth inhibition by CLSI based microdilution method; assay type: functional
Candida albicans [2] = assay: Antifungal activity against Candida albicans SC5314 assessed as fungal growth inhibition by CLSI based microdilution method; assay type: functional
Candida parapsilosis = assay: Antifungal activity against Candida parapsilosis assessed as fungal growth inhibition by CLSI based microdilution method; assay type: functional; conditions: Lodderomyces parapsilosis
Nakaseomyces glabratus = assay: Antifungal activity against Candida glabrata assessed as fungal growth inhibition by CLSI based microdilution method; assay type: functional
Pichia kudriavzevii = assay: Antifungal activity against Pichia kudriavzevii assessed as fungal growth inhibition by CLSI based microdilution method; assay type: functional
Candida tropicalis = assay: Antifungal activity against Candida tropicalis assessed as fungal growth inhibition by CLSI based microdilution method; assay type: functional
Cryptococcus neoformans = assay: Antifungal activity against Cryptococcus neoformans assessed as fungal growth inhibition by CLSI based microdilution method; assay type: functional
[3] = target: T1, Lanosterol 14-alpha demethylase (Candida albicans (strain SC5314 / ATCC MYA-2876) (Yeast), UniProt P10613); assay: Inhibition of CYP51 in Candida albicans SC5314 assessed as ergosterol level at 0.03125 ug/ml incubated for 24 hrs by GC-MS analysis (reference value: 97.58 %); parameters: scale not given: the % may be the effect or the level left; conditions: at 0.03125 µg/mL
[4] = target: T1, Lanosterol 14-alpha demethylase; assay: Inhibition of CYP51 in Candida albicans SC5314 assessed as increase in eburicol level at 0.03125 ug/ml incubated for 24 hrs by GC-MS analysis; conditions: at 0.03125 µg/mL
[5] = target: T1, Lanosterol 14-alpha demethylase; assay: Inhibition of CYP51 in Candida albicans SC5314 assessed as increase in obtusifoliol level at 0.03125 ug/ml incubated for 24 hrs by GC-MS analysis; conditions: at 0.03125 µg/mL
[6] = target: T1, Lanosterol 14-alpha demethylase; assay: Inhibition of CYP51 in Candida albicans SC5314 assessed as increase in lanosterol level at 0.03125 ug/ml incubated for 24 hrs by GC-MS analysis; conditions: at 0.03125 µg/mL
Candida albicans [7] = assay: Antifungal activity against fluconazole-resistant Candida albicans CaR assessed as fungal growth inhibition by CLSI based microdilution method; assay type: functional
Candida albicans [8] = assay: Antifungal activity against fluconazole-resistant Candida albicans 17# assessed as fungal growth inhibition by CLSI based microdilution method; assay type: functional
Candida albicans [9] = assay: Antifungal activity against fluconazole-resistant Candida albicans 632 assessed as fungal growth inhibition by CLSI based microdilution method; assay type: functional
Candida albicans [10] = assay: Antifungal activity against fluconazole-resistant Candida albicans 904 assessed as fungal growth inhibition by CLSI based microdilution method; assay type: functional
Candida albicans [11] = assay: Antifungal activity against fluconazole-resistant Candida albicans 901 assessed as fungal growth inhibition by CLSI based microdilution method; assay type: functional
Candida albicans [12] = assay: Antifungal activity against Candida albicans CPCC400616 assessed as inhibition of yeast to hypha morphological transition at 2 ug/ml incubated for 4 hrs by inverted microscopy; assay type: functional, organism-based; conditions: dose 2.0 µg/ml
Candida albicans [13] = assay: Antifungal activity against fluconazole-resistant Candida albicans 904 assessed as inhibition of yeast to hypha morphological transition at 16 ug/ml incubated for 4 hrs by inverted microscopy; assay type: functional, organism-based; conditions: dose 16.0 µg/ml
Candida albicans [14] = assay: Antibiofilm activity against Candida albicans CPCC400616 incubated for 24 hrs by XTT reduction assay; assay type: functional, organism-based; conditions: dose <= 128.0 µg/ml
Candida albicans [15] = assay: Antibiofilm activity against fluconazole-resistant Candida albicans 904 incubated for 24 hrs by XTT reduction assay; assay type: functional, organism-based; conditions: dose <= 128.0 µg/ml
Candida albicans [16] = assay: Antifungal activity against Candida albicans CPCC400616 assessed as reduction in EFG1 expression at 2 ug/ml incubated for 12 hrs by RT-PCR analysis; assay type: functional, organism-based; conditions: dose 2.0 µg/ml
Candida albicans [17] = assay: Antifungal activity against fluconazole-resistant Candida albicans 904 assessed as reduction in EFG1 expression at 16 ug/ml incubated for 12 hrs by RT-PCR analysis; assay type: functional, organism-based; conditions: dose 16.0 µg/ml
Candida albicans [18] = assay: Antifungal activity against Candida albicans CPCC400616 assessed as reduction in TEC1 expression at 2 ug/ml incubated for 12 hrs by RT-PCR analysis; assay type: functional, organism-based; conditions: dose 2.0 µg/ml
Candida albicans [19] = assay: Antifungal activity against fluconazole-resistant Candida albicans 904 assessed as reduction in TEC1 expression at 16 ug/ml incubated for 12 hrs by RT-PCR analysis; assay type: functional, organism-based; conditions: dose 16.0 µg/ml
Candida albicans [20] = assay: Antifungal activity against Candida albicans CPCC400616 assessed as reduction in CPH1 expression at 2 ug/ml incubated for 12 hrs by RT-PCR analysis; assay type: functional, organism-based; conditions: dose 2.0 µg/ml
Candida albicans [21] = assay: Antifungal activity against fluconazole-resistant Candida albicans 904 assessed as reduction in CPH1 expression at 16 ug/ml incubated for 12 hrs by RT-PCR analysis; assay type: functional, organism-based; conditions: dose 16.0 µg/ml
Candida albicans [22] = assay: Antifungal activity against Candida albicans CPCC400616 assessed as reduction in ALS3 expression at 2 ug/ml incubated for 12 hrs by RT-PCR analysis; assay type: functional, organism-based; conditions: dose 2.0 µg/ml
Candida albicans [23] = assay: Antifungal activity against fluconazole-resistant Candida albicans 904 assessed as reduction in ALS3 expression at 16 ug/ml incubated for 12 hrs by RT-PCR analysis; assay type: functional, organism-based; conditions: dose 16.0 µg/ml
Candida albicans [24] = assay: Antifungal activity against fluconazole-resistant Candida albicans 904 assessed as decrease in ERG11 expression at 16 ug/ml measured after 16 hrs by RT-PCR analysis; assay type: functional, organism-based; conditions: dose 16.0 µg/ml
Candida albicans [25] = assay: Antifungal activity against fluconazole-resistant Candida albicans 904 assessed as decrease in CDR1 expression at 16 ug/ml measured after 16 hrs by RT-PCR analysis; assay type: functional, organism-based; conditions: dose 16.0 µg/ml
Candida albicans [26] = assay: Antifungal activity against fluconazole-resistant Candida albicans 904 assessed as decrease in CDR2 expression at 16 ug/ml measured after 16 hrs by RT-PCR analysis; assay type: functional, organism-based; conditions: dose 16.0 µg/ml
Candida albicans [27] = assay: Antifungal activity against fluconazole-resistant Candida albicans 904 assessed as decrease in MDR1 expression at 16 ug/ml measured after 16 hrs by RT-PCR analysis; assay type: functional, organism-based; conditions: dose 16.0 µg/ml
Candida albicans [28] = assay: Induction of ROS production in fluconazole-resistant Candida albicans 904 at 64 ug/ml incubated for 30 mins by fluorescence microscopy; assay type: functional, organism-based; conditions: dose 64.0 µg/ml
[29] = Metabolic stability in mouse liver microsomes assessed as half life incubated for 5 to 60 mins by LC-MS/MS analysis; assay type: ADME, Microsome; conditions: time 5-60 min
[30] = Stability in mouse plasma assessed as compound remaining at 1 uM measured for 180 mins by LC-MS/MS analysis; assay type: ADME, cell-free; conditions: read-out: Stability
[31] = Stability in mouse plasma assessed as half life at 1 uM measured for 180 mins by LC-MS/MS analysis; assay type: ADME, cell-free
[32] = Cytotoxicity against mouse J774.A1 cells assessed as cell growth inhibition by MTT assay; assay type: toxicity, cell-based

T1 sequence (P10613 whole entry): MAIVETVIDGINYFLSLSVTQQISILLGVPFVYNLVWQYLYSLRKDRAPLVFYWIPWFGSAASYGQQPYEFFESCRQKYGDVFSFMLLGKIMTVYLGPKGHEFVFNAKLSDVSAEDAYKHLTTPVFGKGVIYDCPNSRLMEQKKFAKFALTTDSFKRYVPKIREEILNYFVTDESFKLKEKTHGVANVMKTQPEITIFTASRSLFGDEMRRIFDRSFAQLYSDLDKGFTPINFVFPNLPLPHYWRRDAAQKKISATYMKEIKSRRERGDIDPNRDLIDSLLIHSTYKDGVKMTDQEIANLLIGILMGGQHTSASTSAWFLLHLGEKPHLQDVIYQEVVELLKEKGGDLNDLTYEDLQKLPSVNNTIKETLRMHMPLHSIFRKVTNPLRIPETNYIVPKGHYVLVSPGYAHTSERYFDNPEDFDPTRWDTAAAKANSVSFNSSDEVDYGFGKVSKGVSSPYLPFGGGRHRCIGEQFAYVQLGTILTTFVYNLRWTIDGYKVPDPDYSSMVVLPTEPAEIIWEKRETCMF

## O=c1oc2ccccc2cc1COC(Cn1ccnc1)c1ccc(Cl)cc1Cl (stereo not drawn)
Candida albicans [1]
  MIC: 0.06 µg/mL (≈ 0.144 µM)
Candida albicans [2]
  MIC: 0.03 µg/mL (≈ 0.0722 µM)
Candida parapsilosis
  MIC: < 0.25 µg/mL
Nakaseomyces glabratus
  MIC: 1 µg/mL (≈ 2.41 µM)
Pichia kudriavzevii
  MIC: 0.25 µg/mL (≈ 0.602 µM)
Candida tropicalis
  MIC: 0.5 µg/mL (≈ 1.2 µM)
Cryptococcus neoformans
  MIC: 0.015 µg/mL (≈ 0.0361 µM)
[3]
  Activity: 16.17%
[4]
  inhibition (INH): Active
[5]
  inhibition (INH): Active
[6]
  inhibition (INH): Active
Candida albicans [7]
  MIC: 0.5 µg/mL (≈ 1.2 µM)
Candida albicans [8]
  MIC: 8 µg/mL (≈ 19.3 µM)
Candida albicans [9]
  MIC: 8 µg/mL (≈ 19.3 µM)
Candida albicans [10]
  MIC: 2 µg/mL (≈ 4.82 µM)
Candida albicans [11]
  MIC: 4 µg/mL (≈ 9.63 µM)
Candida albicans [12]
  inhibition: Active
Candida albicans [13]
  inhibition: Active
Candida albicans [14]
  Activity: Dose-Dependent Effect
Candida albicans [15]
  Activity: Dose-Dependent Effect
Candida albicans [16]
  Activity: Active
Candida albicans [17]
  Activity: Active
Candida albicans [18]
  Activity: Active
Candida albicans [19]
  Activity: Active
Candida albicans [20]
  Activity: Active
Candida albicans [21]
  Activity: Active
Candida albicans [22]
  Activity: Active
Candida albicans [23]
  Activity: Active
Candida albicans [24]
  Activity: Active
Candida albicans [25]
  Activity: Active
Candida albicans [26]
  Activity: Active
Candida albicans [27]
  Activity: Active
Candida albicans [28]
  Activity: Active
[29]
  half-life: 2.8 min
[30]
  remaining at 3 h, 1 µM: 2.2%
[31]
  half-life at 1 µM: 34 min
[32]
  IC50: 24.4 µM

## O=c1ccc2cc(COC(Cn3ccnc3)c3ccc(F)cc3F)ccc2o1 (stereo not drawn)
Candida albicans [1]
  MIC: 0.5 µg/mL (≈ 1.31 µM)
Candida albicans [2]
  MIC: 0.25 µg/mL (≈ 0.654 µM)
Candida parapsilosis
  MIC: 2 µg/mL (≈ 5.23 µM)
Nakaseomyces glabratus
  MIC: 16 µg/mL (≈ 41.8 µM)
Pichia kudriavzevii
  MIC: 8 µg/mL (≈ 20.9 µM)
Candida tropicalis
  MIC: 2 µg/mL (≈ 5.23 µM)
Cryptococcus neoformans
  MIC: 32 µg/mL (≈ 83.7 µM)
Candida albicans [7]
  MIC: 64 µg/mL (≈ 167 µM)
Candida albicans [8]
  MIC: 4 µg/mL (≈ 10.5 µM)
Candida albicans [9]
  MIC: 64 µg/mL (≈ 167 µM)
Candida albicans [10]
  MIC: 32 µg/mL (≈ 83.7 µM)
Candida albicans [11]
  MIC: 32 µg/mL (≈ 83.7 µM)

## O=c1ccc2ccccc2o1 [COUMARIN]
Candida albicans [1]
  MIC: > 128 µg/mL
Candida albicans [2]
  MIC: > 128 µg/mL
Candida parapsilosis
  MIC: > 128 µg/mL
Nakaseomyces glabratus
  MIC: > 128 µg/mL
Pichia kudriavzevii
  MIC: > 128 µg/mL
Candida tropicalis
  MIC: > 128 µg/mL
Cryptococcus neoformans
  MIC: > 128 µg/mL
Candida albicans [7]
  MIC: > 128 µg/mL
Candida albicans [8]
  MIC: 128 µg/mL (≈ 876 µM)
Candida albicans [9]
  MIC: > 128 µg/mL
Candida albicans [10]
  MIC: > 128 µg/mL
Candida albicans [11]
  MIC: > 128 µg/mL

## O=c1ccc2ccc(COC(Cn3ccnc3)c3ccc(F)cc3)cc2o1 (stereo not drawn)
Candida albicans [1]
  MIC: 2 µg/mL (≈ 5.49 µM)
Candida albicans [2]
  MIC: 0.5 µg/mL (≈ 1.37 µM)
Candida parapsilosis
  MIC: 16 µg/mL (≈ 43.9 µM)
Nakaseomyces glabratus
  MIC: 64 µg/mL (≈ 176 µM)
Pichia kudriavzevii
  MIC: 32 µg/mL (≈ 87.8 µM)
Candida tropicalis
  MIC: 4 µg/mL (≈ 11 µM)
Cryptococcus neoformans
  MIC: 4 µg/mL (≈ 11 µM)
Candida albicans [7]
  MIC: 128 µg/mL (≈ 351 µM)
Candida albicans [8]
  MIC: 128 µg/mL (≈ 351 µM)
Candida albicans [9]
  MIC: 32 µg/mL (≈ 87.8 µM)
Candida albicans [10]
  MIC: 32 µg/mL (≈ 87.8 µM)
Candida albicans [11]
  MIC: 64 µg/mL (≈ 176 µM)
